Measurements published in paper PMC10051705, “Leishmanicidal Activity of Guanidine Derivatives against Leishmania infantum” (Tropical Medicine and Infectious Disease, 2023).
Marks after values point to notes of the source that are not given here.

Legend:
[1] = tested on: L. infantum axenic amastigotes; experiment: apoptosis/necrosis profiling, annexin V/PI staining, axenic amastigotes; assay type: cell-based, Leishmania infantum
Description: To evaluate both apoptosis and necrosis, promastigote forms of L. infantum in the log phase of growth were incubated at several concentrations based on the IC50 values of LQOFG-2 (6.35; 12.7, 25.4, and 50.8 µM) LQOFG-6 (12.2, 24.4, 48.8 and 97.6 µM), and LQOFG-7 (11.65, 23.3, 46.6 and 93.2 µM), and AmB (1.5 and 6 µM) was used as the positive control. The plates were incubated for 24 h at 26 °C ± 1 °C in a B.O.D. incubator. After incubation, the promastigotes were washed three times in cold PBS, resuspended in binding buffer (10-mM HEPES, 140-mM NaCl, and 2.5-mM CaCl2, pH 7.4), and stained using a FITC Annexin V/Dead Cell Apoptosis Kit (BD Biosciences, San Jose, CA, USA) according to the manufacturer’s instructions. The stained cells were diluted and suspended in an Annexin V binding buffer (BD Biosciences, San Jose, CA, USA). Annexin V-FITC/propidium iodide (PI)-stained cells were analyzed using a BD FACSCanto II flow cytometer (BD Biosciences, San Jose, CA, USA). The raw data were analyzed using FlowJo 10.0.7 software (TreeStar Inc., Ashland, OR, USA).
To evaluate both apoptosis and necrosis of the amastigote-like forms of L. infantum, the protocol was followed. In each well, amastigotes were treated with the guanidine compounds and controls.

monocytes in PBMCs = experiment: nitrite assay (Griess reaction) in PBMC/monocytes infected or not with L. infantum; assay type: cell-based, human; conditions: for nitrite production: compound at 1× EC50, 24 h
Description: To perform the nitrite assay, PBMCs were obtained from five healthy volunteers (3 males, mean age 28.67 ± 2.96; and 2 females, mean age 28.50 ± 0.5) from João Pessoa, PB Brazil. Briefly, peripheral blood was diluted 1:1 with phosphate-buffered saline (PBS) and slowly layered over using Ficoll® Paque PLUS (GE Healthcare, Waukesha, WI, USA). Tubes were centrifuged at 400× g for 40 min at 20 °C. After centrifugation, PBMCs were harvested, washed three times with PBS, and resuspended in RPMI medium supplemented with antibiotics (penicillin 200 U/mL and streptomycin 0.1 mg/mL), 1 mM l-glutamine, and 10% inactivated human serum. Cell viability was assessed using a trypan blue dye exclusion assay. Cells were counted using a hemocytometer.
Promastigotes were prepared as previously described. Briefly, to confirm the infection, the L. infantum promastigotes were labeled with carboxyfluorescein diacetate succinimidyl ester (CFSE) (CellTrace ™ CFSE Cell Proliferation Kit; Eugene, OR, USA). The suspension was incubated for 15 min at 5% CO2, 37 °C, and washed three times with PBS containing 10% inactivated FBS producing CFSE-labeled L. infantum, which was added to PBMCs. The infection ratio was set at 1:10 (monocyte: L. infantum) for 3 h. After the infection, cells were washed three times with PBS supplemented with 10% FBS.
The plates were incubated for 24 h in a 5% CO2 incubator at 37 °C. The plates were centrifuged at 200× g for 8 min at 4 °C, and the supernatant was collected to measure reactive nitrogen production. CD14 surface antibody (PERCP-Cy5.5; clone MΦP9) was used for monocyte labeling (Figure S1). After adding the antibody, the plate was incubated at 4 °C for 15 min, protected from light. The cells were washed with ice-cold PBS buffer. The plate was centrifuged at 200× g again for 10 min at 4 °C. The supernatant was removed, the cells were resuspended in 100 µL of PBS buffer and 100 µL of 4% formaldehyde solution, then read on a flow cytometer (BD FACSCanto II, BD Biosciences, San Jose, CA, USA). FlowJo v.10.8.1 software was used to analyze the raw data. After obtaining PBMC, the cells were plated and incubated with LQOFG-7 and AmB at a concentration of 1× the EC50 value, with media or lipopolysaccharide (LPS) stimulus (lipopolysaccharide derived from Escherichia coli, Sigma-Aldrich O111:B4) at 100 ng/mL [26, 27, 28]. The culture supernatants from those infected and non-infected were evaluated for the stable end-product of reactive nitrogen species (NO, nitrates, and nitrites) using the Griess reaction, according to the Cayman Chemical instruction manual (Cayman Chemical, Ann Arbor, MI, USA). The nitrite level was determined by measuring the absorbance at a wavelength of 540 nm using a microplate reader (BioTek-ELx800).

[2] = tested on: peripheral blood mononuclear cells (PBMCs); experiment: in vitro cytotoxicity in PBMC (MTT); assay type: cell-based, human; conditions: human PBMC, 24 h, MTT
Description: In vitro cytotoxicity was evaluated using peripheral blood mononuclear cells (PBMCs) collected from three healthy volunteers (2 males, mean age 33; and 1 person). PBMCs were separated by density gradient using Ficoll Paque PLUS (GE Healthcare, USA), pelleted by centrifugation (400× g for 40 min), and resuspended in RPMI 1640 medium, then supplemented with 10% fetal bovine serum and 1% antibiotic solution (penicillin 5000 Units/mL + streptomycin 5000 μg/mL). After 24 h of treatment, cell viability was evaluated by the modified colorimetric method based on the tetrazolium dye MTT (3-(4,5-dimethylthiazol-2-yl)-2,5- diphenyltetrazolium bromide). The MTT assay was used for in vitro cytotoxicity as previously described with the following modifications: cells were exposed to serially diluted concentrations of LQOFG-2, LQOFG-6, LQOFG-7 (1000 to 7.8 µM), and AmB (100 to 0.78 µM). The plates were kept at 37 °C for 24 h. MTT (5 mg/mL) was added and incubated for 4 h at 37 °C, after which the plates were centrifuged, the supernatant was discarded, and DMSO was added, leaving the plates under stirring to solubilize the formazan salts. Absorbance was measured at 540 nm using a plate reader (ELx800; Curitiba, PR, Brazil). The mean percentage of viable cells was calculated relative to the untreated control.

Row | SMILES | % cells, Early Apoptosis (AV+, PI−) ([1]; 0.5 × EC50, 24 h) | % cells, Late Apoptosis (AV+, PI+) ([1]; 0.5 × EC50, 24 h) | % cells, Necrosis (AV−, PI+) ([1]; 0.5 × EC50, 24 h) [%] | % cells, Early Apoptosis (AV+, PI−) ([1]; 1 × EC50, 24 h) | % cells, Late Apoptosis (AV+, PI+) ([1]; 1 × EC50, 24 h) | % cells, Necrosis (AV−, PI+) ([1]; 1 × EC50, 24 h) [%] | % cells, Early Apoptosis (AV+, PI−) ([1]; 2 × EC50, 24 h) | % cells, Late Apoptosis (AV+, PI+) ([1]; 2 × EC50, 24 h) | % cells, Necrosis (AV−, PI+) ([1]; 2 × EC50, 24 h) [%] | % cells, Early Apoptosis (AV+, PI−) ([1]; 4 × EC50, 24 h) | % cells, Late Apoptosis (AV+, PI+) ([1]; 4 × EC50, 24 h) | % cells, Necrosis (AV−, PI+) ([1]; 4 × EC50, 24 h) | nitrite production (monocytes in PBMCs; monocytes infected with L. infantum, not LPS-activated, untreated infected 0.367 ± 1.48 µM) [µM] | nitrite production (monocytes in PBMCs; uninfected human monocytes (PBMC), untreated control 3.81 ± 1.36 µM) [µM] | CC50 [2] [µM] | % cells, Late Apoptosis (AV+, PI+) ([1]; 1 × EC50, 24 h, listed as AmB) [%] | % cells, Late Apoptosis (AV+, PI+) ([1]; 4 × EC50, 24 h, listed as AmB) [%] | nitrite production (monocytes in PBMCs; monocytes infected with L. infantum, LPS-activated (100 ng/mL)) [µM] | increase in nitrite production (in words) (monocytes in PBMCs; monocytes infected with L. infantum, treatment at EC50)
1 | O=C(/N=C(/NCc1ccccc1)Nc1ccc(I)cc1)c1ccccc1 [LQOFG-7, (Z)-N-((benzylamine)((4-iodophenyl)amino)methylene)benzamide] | 5.56 ± 0.46 ^a % | 35.53 ± 3.13 ^c % | 9.83 ± 1.27 | 5.84 ± 0.57 ^b % | 44.20 ± 1.01 ^d % | 13.53 ± 0.32 | 10.02 ± 1.53 ^d % | 36.70 ± 10.35 ^d % | 5.63 ± 1.24 | 8.01 ± 0.14 ^d % | 63.27 ± 0.59 ^d % | 12.27 ± 0.48% | 13.5 ± 1.30 | 10.5 ± 3.58 |  |  |  |  | 
2 | C[C@@H]1[C@H](O)[C@@H](C)/C=C/C=C/C=C/C=C/C=C/C=C/C=C/[C@H](O[C@@H]2O[C@H](C)[C@@H](O)[C@H](N)[C@@H]2O)C[C@@H]2O[C@](O)(C[C@@H](O)C[C@@H](O)[C@H](O)CC[C@@H](O)C[C@@H](O)CC(=O)O[C@H]1C)C[C@H](O)[C@H]2C(=O)O [Amphotericin B, reference compound] |  |  |  | 4.73 ± 0.97% | 57.50 ± 1.72 ^d % | 11.52 ± 1.89 |  |  |  | 0.60 ± 0.42% | 97.87 ± 1.01 ^d % | 0.96 ± 0.33 ^d % |  |  | 53.8 ± 3.59 | 57.50 ± 1.72 | 97.87 ± 1.01 | 13.6 ± 4.25 | no significant increase
